Experimental data reported in patent US4808605A, “Tetrahydronaphthalene derivatives as calcium antagonists” (Hoffmann-La Roche Inc., priority 1986, dated 1989).

Legend:
[1] = tested on: Isolated, perfused guinea pig heart; assay: Isolated, perfused guinea pig heart according to Langendorff (Test B); details: Cavia porcellus, infusion, 10^-10 to 10^-6 M, pH 7.3, 37° C., read-out: CBF IC50
Protocol: B. Isolated, perfused guinea pig heart according to Langendorff: Guinea pigs weighing approximately 400 g are narcotized with Urethan (1 g/kg i.p.) and the heart is removed rapidly. […] A Miller microtip catheter pressure transducer (PC-350) is inserted in the left heart chamber in order to measure the left ventricular pressure. The total coronary artery flow is collected in a funnel and measured with an electro magnetic flow meter. All measurement parameters are recorded on a recording apparatus (Gould, Model 2800). The test begins after an adaptation of 45 minutes. Substances are infused with a velocity of 1% of the total coronary flow rate. A complete concentration-activity curve (10^-10 to 10^-6 M) is prepared for each substance.

narcotized dog = assay: Haemodynamic parameters in the narcotized dog (Test C); assay type: in vivo; details: % maximum variation from initial value; for BP Δ %: blood pressure; for CBF Δ %: coronary blood flow; for HR Δ %: heart rate; for dp/dt Δ %: rate of increase in left ventricular pressure
Protocol: C. […] The values are given as the % maximum variation from the initial value (Δ %) and the duration of this variation (t) per dosage administered. There is thus obtained not only an overall picture of the activity of the substance, but also an estimation as to the potential selectivity for a specific part of the circulatory system in the entire organism. After the administration of an anaesthetic, the dog is intubated and respired artificially. Blood pH, pC2 O , pO2 and haemoglobin are measured hourly with a blood-gas analyser. The blood pressure (systolic and diastolic) is measured with a probe in the aorta abdominalis. The heart freguency is recorded by means of a tachometer, which is disengaged from the pressure pulse. For the other measurements the heart must be firstly be opened in order that a probe can be inserted in the left ventricle (heart chamber) for the pressure measurements (dp/dt). The coronary blood flow is measured with a flowing probe in the left coronary artery (descendens).

[2] = molecular target: T1, ^3 H-desmethoxyverapamil binding, partially-cleaned membranes of guinea pig heart (Cavia porcellus, UniProt O35505); assay: ^3 H-Desmethoxyverapamil binding determinations (Test A); details: half-maximum inhibition of specific ^3 H-desmethoxyverapamil binding; 2.5 nM; 120 minutes at 37° C.
T1 construct: partially-cleaned membranes of guinea pig heart; from tissue; host or cells: guinea pig heart, partially-cleaned membranes
T1 sequence (O35505 whole entry): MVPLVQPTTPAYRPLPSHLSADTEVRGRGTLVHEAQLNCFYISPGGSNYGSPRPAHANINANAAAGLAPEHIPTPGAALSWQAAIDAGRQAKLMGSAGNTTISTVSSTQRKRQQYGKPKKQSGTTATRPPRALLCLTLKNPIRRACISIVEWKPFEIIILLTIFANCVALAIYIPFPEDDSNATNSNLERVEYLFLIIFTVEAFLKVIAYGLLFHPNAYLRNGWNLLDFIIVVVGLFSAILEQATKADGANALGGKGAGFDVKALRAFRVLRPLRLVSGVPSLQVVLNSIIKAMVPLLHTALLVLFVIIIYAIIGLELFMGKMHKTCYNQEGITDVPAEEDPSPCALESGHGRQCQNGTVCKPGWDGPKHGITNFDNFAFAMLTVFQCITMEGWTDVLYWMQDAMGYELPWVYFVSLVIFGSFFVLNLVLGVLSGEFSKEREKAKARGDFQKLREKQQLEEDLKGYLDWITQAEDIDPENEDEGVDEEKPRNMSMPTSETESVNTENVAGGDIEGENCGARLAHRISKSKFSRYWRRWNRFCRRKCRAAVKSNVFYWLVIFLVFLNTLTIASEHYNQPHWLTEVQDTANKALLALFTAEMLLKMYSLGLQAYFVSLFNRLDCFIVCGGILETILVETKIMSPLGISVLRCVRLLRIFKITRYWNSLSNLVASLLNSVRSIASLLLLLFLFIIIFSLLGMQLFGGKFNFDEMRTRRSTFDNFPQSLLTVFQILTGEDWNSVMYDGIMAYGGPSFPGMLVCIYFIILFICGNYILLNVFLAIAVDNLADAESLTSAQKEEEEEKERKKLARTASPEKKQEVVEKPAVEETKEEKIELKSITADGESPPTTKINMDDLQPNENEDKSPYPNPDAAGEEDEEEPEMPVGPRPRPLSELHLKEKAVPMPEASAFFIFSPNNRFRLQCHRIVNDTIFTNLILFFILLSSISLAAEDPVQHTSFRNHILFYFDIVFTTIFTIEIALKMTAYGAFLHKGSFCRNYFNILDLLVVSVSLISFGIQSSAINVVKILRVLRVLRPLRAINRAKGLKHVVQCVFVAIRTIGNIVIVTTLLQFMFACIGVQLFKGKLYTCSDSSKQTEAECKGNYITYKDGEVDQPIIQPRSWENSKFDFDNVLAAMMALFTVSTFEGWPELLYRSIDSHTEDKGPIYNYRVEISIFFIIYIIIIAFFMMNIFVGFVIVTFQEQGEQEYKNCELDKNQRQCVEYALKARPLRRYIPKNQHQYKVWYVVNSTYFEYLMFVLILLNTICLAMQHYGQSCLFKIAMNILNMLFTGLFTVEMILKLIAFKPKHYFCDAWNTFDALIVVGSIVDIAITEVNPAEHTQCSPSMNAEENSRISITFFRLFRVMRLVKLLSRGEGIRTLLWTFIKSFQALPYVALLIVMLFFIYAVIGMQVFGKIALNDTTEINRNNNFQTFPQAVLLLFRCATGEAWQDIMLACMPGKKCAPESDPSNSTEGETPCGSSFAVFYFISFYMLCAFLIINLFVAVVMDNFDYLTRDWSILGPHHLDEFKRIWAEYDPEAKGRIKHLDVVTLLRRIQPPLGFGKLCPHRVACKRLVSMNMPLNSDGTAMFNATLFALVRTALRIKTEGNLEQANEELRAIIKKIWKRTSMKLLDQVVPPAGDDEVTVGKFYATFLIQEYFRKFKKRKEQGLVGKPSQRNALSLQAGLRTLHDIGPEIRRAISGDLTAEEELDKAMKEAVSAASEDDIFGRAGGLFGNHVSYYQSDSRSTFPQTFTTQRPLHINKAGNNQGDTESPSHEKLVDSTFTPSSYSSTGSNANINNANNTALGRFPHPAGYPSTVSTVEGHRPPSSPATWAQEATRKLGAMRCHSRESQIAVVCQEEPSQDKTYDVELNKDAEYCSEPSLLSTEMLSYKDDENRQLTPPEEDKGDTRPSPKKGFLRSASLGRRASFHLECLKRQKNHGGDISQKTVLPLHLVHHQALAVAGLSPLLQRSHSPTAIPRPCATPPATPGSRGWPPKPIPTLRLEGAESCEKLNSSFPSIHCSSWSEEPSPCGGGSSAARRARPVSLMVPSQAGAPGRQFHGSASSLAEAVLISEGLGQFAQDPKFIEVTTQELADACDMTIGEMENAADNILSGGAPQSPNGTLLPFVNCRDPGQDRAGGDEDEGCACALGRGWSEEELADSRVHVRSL
Protocol: A. ^3 H-Desmethoxyverapamil binding determinations:
The determination is carried out on partially-cleaned membranes of guinea pig heart. […] The incubation lasts 120 minutes at 37° C. and is stopped by dilution with the incubation buffer; a filtration is subsequently carried out. The filter-bound radioactivity is measured with a scintillation counter. Specific binding (i.e. receptor-bound) is defined as the difference between total and unspecific-bound radioactivity. The unspecific binding is determined in the presence of an excess of non-radioactive verapamil (10 μM).
The activity (potency) of a compound in this test is defined by the IC50 value. The IC50 is the substance concentration (in mol/l) which produces a half-maximum inhibition of the specific ^3 H-desmethoxyverapamil binding. This value is extrapolated from a concentration-binding curve.

SMILES | IC50 [1] | BP Δ % (narcotized dog; 0.3 mg/kg i.v.) | CBF Δ % (narcotized dog; 0.3 mg/kg i.v.) | HR Δ % (narcotized dog; 0.3 mg/kg i.v.) | dp/dt Δ % (narcotized dog; 0.3 mg/kg i.v.) | IC50 [2] | BP Δ % (narcotized dog; 0.03 mg/kg i.v.) | CBF Δ % (narcotized dog; 0.03 mg/kg i.v.) | HR Δ % (narcotized dog; 0.03 mg/kg i.v.) | dp/dt Δ % (narcotized dog; 0.03 mg/kg i.v.) | BP Δ % (narcotized dog; 1 mg/kg i.v.) | CBF Δ % (narcotized dog; 1 mg/kg i.v.) | HR Δ % (narcotized dog; 1 mg/kg i.v.) | dp/dt Δ % (narcotized dog; 1 mg/kg i.v.)
COCC(=O)O[C@]1(CCN(C)CCCc2nc3ccccc3[nH]2)CCc2cc(F)ccc2[C@@H]1C(C)C [A, [1S,2S]-2-[2-[[3-(2-benzimidazolyl)propyl]methylamino]ethyl]-6-fluoro-1,2,3,4-tetrahydro-1-isopropyl-2-naphthyl methoxyacetate] | 47 nM | -22% | 86% | -7% | 25% | 130 nM | – | – | – | – | – | – | – | –
CC(C)[C@H]1c2ccc(F)cc2CC[C@]1(O)CCN(C)CCCCCCCc1nc2ccccc2[nH]1 [B, [1S,2S]-2-[2-[[7-(2-benzimidazolyl)heptyl]methylamino]ethyl]-6-fluoro-1,2,3,4-tetrahydro-1-isopropyl-2-naphthalenol] | 50 nM | -6% | 36% | 0% | 8% | 630 nM | – | – | – | – | – | – | – | –
CCCCNC(=O)O[C@]1(CCN(C)CCCCCc2nc3ccccc3n2C)CCc2cc(F)ccc2[C@@H]1C(C)C [C, [1S,2S]-6-fluoro-1,2,3,4-tetrahydro-1-isopropyl-2-[2-[methyl-[5-(1-methyl-2-benzimidazolyl)pentyl]amino]ethyl]-2-naphthyl butylcarbamate] | 17 nM | -16% | 62% | -9% | 15% | 210 nM | – | – | – | – | – | – | – | –
COCC(=O)O[C@]1(CCN(C)CCCCCCn2c(=O)[nH]c3ccccc32)CCc2cc(F)ccc2[C@@H]1C(C)C [D, [1S,2S]-6-fluoro-1,2,3,4-tetrahydro-1-isopropyl-2-[2-[methyl-[6-(2-oxo-1-benzimidazolinyl)hexyl]amino]ethyl]-2-naphthyl methoxyacetate] | 1.1 nM | – | – | – | – | 32 nM | -21% | 22% | -25% | 6% | – | – | – | –
COCC(=O)O[C@]1(CC[N+](C)([O-])CCCc2nc3ccccc3[nH]2)CCc2cc(F)ccc2[C@@H]1C(C)C (stereo partly drawn) [E, [1S,2S]-2-[2-[[3-(2-benzimidazolyl)propyl]methyl-N-oxidoamino]ethyl]-6-fluoro-1,2,3,4-tetrahydro-1-isopropyl-2-naphthyl methoxyacetate] | 10000 nM | – | – | – | – | 1000 nM | – | – | – | – | -8% | 57% | 0% | 10%
CCCCCCCCCCCCn1c(CCCCCCCN(C)CC[C@@]2(OC(=O)COC)CCc3cc(F)ccc3[C@@H]2C(C)C)nc2ccccc21 [F, [1S,2S]-2-[2-[[7-(1-dodecyl-2-benzimidazolyl)heptyl]methylamino]ethyl]-6-fluoro-1,2,3,4-tetrahydro-1-isopropyl-2-naphthyl methoxyacetate] | 28 nM | -3% | 46% | -2% | 4% | 34 nM | – | – | – | – | – | – | – | –
COCC(=O)O[C@]1(CCN(C)CCCc2nc(-c3ccccc3)c(-c3ccccc3)n2C)CCc2cc(F)ccc2[C@@H]1C(C)C [G, [1S,2S]-6-fluoro-1,2,3,4-tetrahydro-1-isopropyl-2-[2-[[3-(1-methyl-4,5-diphenylimidazol-2-yl)propyl]methylamino]ethyl]-2-naphthyl methoxyacetate] | 1.8 nM | -20% | 96% | -15% | 11% | 150 nM | – | – | – | – | – | – | – | –
COCC(=O)O[C@]1(CCN(C)CCCCCc2nc3ccccc3s2)CCc2cc(F)ccc2[C@@H]1C(C)C [H, [1S,2S]-2-[2-[[5-(2-benzthiazolyl)pentyl]methylamino]ethyl]-6-fluoro-1,2,3,4-tetrahydro-1-isopropyl-2-naphthyl methoxyacetate] | 2.4 nM | -28% | 146% | -41% | 25% | 28 nM | – | – | – | – | – | – | – | –
COCC(=O)O[C@]1(CCN(C)Cc2ccc(Cc3nc4ccccc4[nH]3)cc2)CCc2cc(F)ccc2[C@@H]1C(C)C [I, [1S,2S]-6-fluoro-1,2,3,4-tetrahydro-1-isopropyl-2-[2-[[4-[(2-benzimidazolyl)methyl]benzyl]methylamino]ethyl]-2-naphthyl methoxyacetate] | 22 nM | -14% | 82% | -9% | 18% | 100 nM | – | – | – | – | – | – | – | –
